From patent US20210238225A1, “PEPTIDOMIMETIC INHIBITORS OF THE PEPTIDYL-PROLYL CIS/TRANS ISOMERASE (PIN1)” (DANA-FARBER CANCER INSTITUTE, INC., priority 2018, published 2021)
Entries after “also recorded” stand apart in the source; their conditions may differ. Non-standard residues stand in square brackets, D forms with d. Residues, ends and D or L forms follow the SMILES beside them. *: point of attachment. 2Nal = N[C@@H](Cc1ccc2ccccc2c1)C(=O)O; NMeF = CN[C@@H](Cc1ccccc1)C(=O)O; Cit = NC(=O)NCCC[C@H](N)C(=O)O; Pip = O=C(O)[C@@H]1CCCCN1; ClAc = O=C(CCl)*

Columns and labels:
Pin1 Cys 113 = Pin1 Cys 113 (Homo sapiens, UniProt Q13526); assay: Covalent labeling (intact MS); type: binding; details: for Covalent? (In tact MS), % labeling: purified Pin1 with 5 μM inhibitor, 0-3 hr
Chain of Pin1 Cys 113 (Q13526 whole entry): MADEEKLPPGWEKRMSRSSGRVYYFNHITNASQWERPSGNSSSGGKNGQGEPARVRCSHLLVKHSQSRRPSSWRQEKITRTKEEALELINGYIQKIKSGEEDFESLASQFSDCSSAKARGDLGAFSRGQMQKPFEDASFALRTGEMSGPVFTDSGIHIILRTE
Description: 5 μg of purified Pin1 protein in 50 μL of 20 mM HEPES pH 7.5 and 75 mM NaCl was incubated with 5 μM of respective Pin1 inhibitors for 0-3 hr. A Shimadzu XR HPLC was used to inject the entire sample onto a self-packed reverse-phase column (1/32 in outer diameter×500 μm inner diameter, 5 cm of POROS 50R2 resin). After desalting, protein was eluted with an HPLC gradient (0%-100% B in 4 min, A=0.2 M acetic acid in water, B=0.2 M acetic acid in acetonitrile, flow rate=10 μl/min) into a LTQ XL mass spectrometer (Thermo Fisher Scientific, San Jose, Calif., USA). LTQ XL MS spectra were acquired in centroid mode using the electron multipliers for ion detection. Mass spectra were deconvoluted using MagTran1.03b2 software (Zhang and Marshall, J. Am. Soc. Mass Spectrom. 9:225-233 (1998)).

Pin1 [1] = molecular target: T1, Pin1 (Homo sapiens, UniProt Q13526); assay: X-ray crystallography; set-up: A construct of full-length human Pin1 in a pET28 vector; made in house; host or cells: E. coli BL21 (DE3)
T1 sequence (Q13526 whole entry): as above
Description: A construct of full-length human Pin1 in a pET28 vector was overexpressed in E. coli BL21 (DE3) in LB medium in the presence of […] of kanamycin. Cells were grown at 37° C. to an OD of 0.8, cooled to 17° C., induced with 500 μM isopropyl-1-thio-D-galactopyranoside, incubated overnight at 17° C., collected by centrifugation, and stored at −80° C. Cell pellets were sonicated in buffer A (50 mM hepes 7.5, 300 mM NaCl, 10% glycerol, 10 mM Imidazole, and 3 mM 2-mercaptoethanol (BME) and the resulting lysate was centrifuged at 30,000×g for 40 min. Ni-NTA beads (Qiagen) were mixed with lysate supernatant for 30 min and washed with buffer A. Beads were transferred to an FPLC-compatible column and the bound protein was washed with 15% buffer B (50 mM hepes 7.5, 300 mM NaCl, 10% glycerol, 300 mM imidazole, and 3 mM BME) and eluted with 100% buffer B. Thrombin was added to the eluted protein and incubated at 4° C. overnight. The sample was concentrated and passed through a Superdex® 200 10/300 column (GE healthcare) in a buffer containing 20 mM hepes 7.5, 150 mMNaCl, 5% glycerol, 3 mM DTT, and 1 mM tris(2-carboxyethyl)phosphine (TCEP). Fractions were pooled, concentrated to approximately 37 mg/ml and frozen at −80° C.
Apo protein at a final concentration of 1 mM was crystallized by sitting-drop (200 nL+200 nL) vapor diffusion at 20° C. in the following crystallization buffer: 3 M (NH4)2SO4, 100 mM BisTris-pH 7.0, 1% PEG400, and 1 mM DTT. A volume of 200 nL of 1 mM compound 2b-6 was added directly to crystals for soaking at 20° C. for 16 hrs. Crystals were transferred briefly into crystallization buffer containing 25% glycerol prior to flash-freezing in liquid nitrogen.
Diffraction data from complex crystals were collected at beamline 24ID-E of the NE-CAT at the Advanced Photon Source (Argonne National Laboratory). Data sets were integrated and scaled using XDS (Kabsch, Acta Crystallogr. D Biol. Crystallogr. D66: 133-144 (2010)). […]

Pin1 (GST-Pin1) [2] = molecular target: T2, Pin1 (GST-Pin1) (Homo sapiens, UniProt Q13526); assay: Chymotrypsin-coupled PPIase assay, inhibition of isomerase activity; type: biochemical; details: 12 hours pre-incubation at 4° C.; Cheng-Prusoff equation; read-out: Ki, μM (PPlase Assay)
T2 sequence (Q13526 whole entry): as above
Description: Inhibition of Pin1 isomerase activity was determined using the chymotrypsin-coupled PPIase assay, using GST-Pin1 and Suc-Ala-pSer-Pro-Phe-pNA peptide substrate ([…]), as described previously (Yaffe et al., Science 275:1957-1960 (1997)). GST-Pin1 was pre-incubated with the indicated concentrations of compound for 12 hours at 4° C. in buffer containing 35 mM HEPES (pH 7.8), 0.2 mM DTT, and 0.1 mg/mL bovine serum albumin (BSA). Immediately before the assay was started, chymotrypsin (final concentration 6 mg/mL), followed by the peptide substrate (Suc-Ala-pSer-Pro-Phe-pNA peptide substrate, final concentration […]) was added. The Ki value obtained from the PPIase assay was derived from the Cheng-Prusoff equation, Ki=IC50/(1+S/Km), where Km is the Michaelis constant for the used substrate, S is the initial concentration of the substrate in the assay, and IC50 is the […] inhibitory concentration of the inhibitor.

Pin1 [3] = molecular target: T1, Pin1; assay: Lysate target engagement (pull down with biotinylated probes; competition assay); type: binding; set-up: endogenous in cells; host or cells: MDA-MB-231; details: for Lysate Target Engagement?: TNBC-MDA-MB-231 lysate, biotin/dtb probes: pull down, others: competition, concentration under E5
In short: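 MDA-MB-231 (TNBC) lysates, 500 μg protein, incubated 1 h at 4 °C with compound, then streptavidin pull-down 2 h at 4 °C; western blot read-out. Competition format: lysate pre-incubated overnight at 4 °C with competitor, then 1 μM desthiobiotin probe for 1 h before pull-down.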

[4] = test system: phosphoRb (S780), phosphoRb (S801/811), β-Catenin, cJun, cMyc and phosphoH3 (S10); assay: Downstream signaling, western blot in TNBC MDA-MB-231 cells; type: cell-based; details: 10 μM, 1, 2, 4, 6 and 8 hours
Description: TNBC MDA-MB-231 cells were plated in 6-well plates at a density of 100,000 cells per well in 2 mL media. The day after plating, cells were treated with the indicated concentration of compound 18, and harvested at 1, 2, 4, 6, and 8 hours. To harvest, the cells were washed with PBS, and then lysed in RIPA Lysis Buffer (Thermo Scientific™, cat. #89900, with protease inhibitors (Roche). Lysates were clarified by centrifugation (14,000 rpm for 15 min at 4° C.), and protein concentrations were determined by BCA. The samples were normalized and prepared in 4× LDS+10% β-mercaptoethanol, and were then boiled at 95° C. for 5 minutes. Lysates were probed for specified proteins by western blotting using the Bolt system (Life Technologies™).

PATU-8988T cells = assay: Time-dependent antiproliferative activity (CellTiter-Glo); type: cell-based; details: Day 0, 2, 4, 6 and 8
Description: PATU-8988T cells were plated at a density of 100 cells per well in 100 μL media in a 96-well white clear bottom plate (Corning cat #3903), with at least one plate per time point (Day 0, 2, 4, 6 and 8). Cells were treated the day after plating with 1 μL of DMSO or Compound 18 to give the indicated concentrations, and were then incubated at 37° C. 5% CO2. Every 48 hours, the media was aspirated and replaced with fresh media containing fresh compound or DMSO. When the indicated time points had been reached, cell viability was evaluated using the CellTiter-Glo Luminescent Cell Viability Assay (Promega cat #G7570) according to the manufacturer's standards, measuring luminescence using an Envision plate-reader. The Day 0 time point plates were read the day after plating, prior to compound treatment. N=3 biological replicates were used for each treatment condition.

Pin1 [5] = molecular target: T1, Pin1; assay: Cellular target engagement, live cell biotin competition assay in TNBC MDA-MB-231 cells; type: cell-based; set-up: endogenous in cells; host or cells: MDA-MB-231
In short: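 Cells treated 5 h with compound, then lysed; lysates incubated with 1 μM biotin probe compound 1 h at 4° C and pulled down on streptavidin agarose 2 h at 4° C. Bound Pin1 versus input detected by western blot.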

Pin1 (GST-Pin1) [6] = molecular target: T2, Pin1 (GST-Pin1); assay: Fluorescence polarization (FP) assay, binding to Pin1

N=C(N)NCCC[C@H](NC(=O)[C@H](Cc1ccc2ccccc2c1)NC(=O)[C@@H]1CCCCN1C(=O)[C@H](CCC(=O)O)NC(=O)CCl)C(N)=O [Compound 2b-6, (S)-5-((S)-2-(((S)-1-(((S)-1-Amino-5-guanidino-1-oxopentan-2-yl)amino)-3-(naphthalen-2-yl)-1-oxopropan-2-yl)carbamoyl)piperidin-1-yl)-4-(2-chloroacetamido)-5-oxopentanoic acid] (ClAc-E[Pip][2Nal]R-NH2)
Pin1 covalent labeling time course (FIG. 3A) (Pin1 Cys 113; over the course of 60 minutes): rapidly labeled Pin1 Cysl 13
Covalent? (In tact MS), % labeling (Pin1 Cys 113): Yes (100%
X-Ray Crystal Structure? (Pin1 [1]): Yes
binding mode in x-ray co-crystal structure (FIG. 4A) (Pin1 [1]; 1.8 A resolution, crystal soaking): covalently bound to Pin1; also recorded: covalently bound to Cys113 in the PPIase active site
Ki (Pin1 (GST-Pin1) [2]): 0.04 µM
Lysate Target Engagement? (Pin1 [3]): No

CCOC(=O)[C@H](CCCNC(N)=O)NC(=O)[C@H](Cc1c[nH]c2ccccc12)NC(=O)[C@@H]1CCCCN1C(=O)[C@H](Cc1ccccc1)N(C)C(=O)CCl [Compound 18, Ethyl (S)-2-((S)-2-((S)-1-(N-(2-chloroacetyl)-N-methyl-L-phenylalanyl)piperidine-2-carboxamido)-3-(1H-indol-3-yl)propanamido)-5-ureidopentanoate] (ClAc-[NMeF][Pip]W[Cit]-OEt)
downstream signaling changes (FIG. 9) [4]: a decrease in phosphoRb, β-Catenin, cJun, phosphoH3 (S10), and a temporary increase in c-Myc; also recorded: induced changes in downstream signaling
cell viability (FIG. 10) (PATU-8988T cells): dose-dependent and time-dependent defects in cell viability
concentration at which cellular Pin1 is fully engaged (FIG. 7B) (Pin1 [5]; TNBC MDA-MB-231 cells, 5 hours): ≤ 5 µM
Cellular Target Engagement? (Pin1 [5]; TNBC MDA-MB-231 cells, 5 hours treatment, concentration under E7): Yes-Complete
Cellular Target Engagement? concentration stated for complete engagement (Pin1 [5]; TNBC MDA-MB-231 cells, read with the E6 line): at 5 μM
live cell competition with compound 2-32 (FIG. 7B legend) (Pin1 [5]; preincubation of live TNBC-MDA-MB-231 cells with increasing concentrations): outcompetes compound 2-32 for Pin1 binding
covalent labeling of Pin1 (Pin1 Cys 113; 30-minute room temperature incubation at 1:1 Pin1:compound): 100%
Covalent? (In tact MS), % labeling (Pin1 Cys 113): Yes (100%
Ki (Pin1 (GST-Pin1) [6]; read-out: Ki quoted in figure legend, assay not named): 20 nM
Ki (Pin1 (GST-Pin1) [6]; text and figure legend, read-out: Ki (fluorescence polarization, FIG. 1B)): 20 nM
competition with compound 2c for Pin1 (FIG. 6B legend) (Pin1 [3]; HEK 293 cell lysate as printed in legend): competes with compound 2c for binding of Pin1
lysate target engagement by competition with 1 μM compound 2c (FIG. 6B) (Pin1 [3]; TNBC-MDA-MB-231 cell lysate, pre-incubation overnight at 4° C.): potently engaged Pin1
Lysate Target Engagement? (Pin1 [3]): Yes-
Lysate Target Engagement? concentration stated for the engagement or pull down (Pin1 [3]; read with the E4 line of the same compound (complete, partial, probe pull down)): 500 µM
